Read-outs that look alike come from different tables or passages of the source.
Experiments:
Assay type in all cases: cell-based
Cellulophaga lytica = experiment: Growth reduction / MIC test against Cellulophaga lytica; conditions: for MIC: Cellulophaga lytica
Procedure: (§1) The antimicrobial properties of the Formulations were determined by measuring the minimum inhibitory concentration (MIC) or by using an adaptation of the MIC test. […] Additional details of the MIC method can be found at Andrews, J. M., Journal of Antimicrobial Chemotherapy (2001) 48, 5-16, incorporated herein by reference in its entirety.
(§2) In accordance with the MIC test, working solutions for each Formulation were prepared by dissolving 100 mg of each Formulation in 10 mL of methanol (Sigma-Aldrich) to generate a 10 mg/mL solution. Next, 10 ml of Guillard's F/2 medium was spiked with 200 μL of the 10 mg/mL Formulation solution to achieve a final concentration of 0.2 mg/mL.
(§3) 0.2 mL of each concentration of each Formulation (spiked with C. lytica) was added in triplicate to a 96-well plate. Additionally, 0.2 mL of Guillard's F/2 medium without any C. lytica or Formulation and 0.2 mL of Guillard's F/2 medium with C. lytica, but no Formulations, served as negative and positive growth controls, respectively. The 96-well plates were placed in an illuminated growth cabinet with a 16:8 light:dark cycle (photon flux density 33 μmol m^−2 s^−1) for 48 hrs at 18° C. and measured for chlorophyll fluorescence using a multi-well plate spectrophotometer (excitation: 360 nm; emission: 670 nm). The efficacy of each Formulation was measured by determining the percent reduction in diatom growth as a function of Formulation concentration.
(§4) The antimicrobial activity of Formulations 10-12, also derived from ETCS and PEI, was determined toward a suite of marine microorganisms, namely, Pseudoalteromonas atlantica, Cellulophaga lytica, Cobetia marina, and Halomonas pacifica. The antimicrobial activity of Formulations 10-12 was determined toward these marine microorganisms according to the methods of EXAMPLES 5-7. The MIC for each Formulation against each strain is compared to that of the PEI, ETCS, and TCS (alone) in Table 7.

Halomonas pacifica = experiment: Growth reduction / MIC test against Halomonas pacifica; conditions: for MIC: Bisbaumannia pacifica
Procedure: as §1, §2
0.2 mL of each H. pacifica concentration was added in triplicate to a 96-well plate. Additionally, 0.2 mL of Guillard's F/2 medium without any H. pacifica or Formulation and 0.2 mL of Guillard's F/2 medium with H. pacifica, but no Formulations, served as negative and positive growth controls, respectively. The 96-well plates were placed in an illuminated growth cabinet with a 16:8 light:dark cycle (photon flux density 33 μmol m^−2 s^−1) for 48 hrs at 18° C. and measured for chlorophyll fluorescence using a multi-well plate spectrophotometer (excitation: 360 nm; emission: 670 nm). The efficacy of each Formulation was measured by determining the percent reduction in diatom growth as a function of Formulation concentration.
as §4

Escherichia coli = experiment: Growth reduction / MIC test against Escherichia coli in Luria-Bertani broth, absorbance 600 nm; conditions: for MIC: Escherichia coli, read-out: E. Coli MIC; for Percent reduction in growth of Escherichia coli: Table 10
Procedure: as §1
as §2, with “Luria-Bertani broth” for “Guillard's F/2 medium”, “the” for “the 10”
(§5) 0.2 mL of each concentration of each Formulation (spiked with E. coli) was added in triplicate to a 96-well plate. Additionally, 0.2 mL of Luria-Bertani broth without any E. coli or Formulation and 0.2 mL of Luria-Bertani broth with E. coli, but no Formulations, served as negative and positive growth controls, respectively. Plates were then placed in an incubator, at 37° C. for 24 hrs (with shaking), and then measured for growth by taking absorbance measurements at 600 nm with a multi-well plate spectrophotometer (Synergy HT). The efficacy of each Formulation was measured by determining the percent reduction in bacterial growth as a function of Formulation concentration.
Next, the antimicrobial activity of Formulations 69-77 and Reference 1 toward E. coli was measured by determining the percent reduction in bacterial growth as a function of concentration. The results for the examples were compared to various PEIs used to produce the examples.

Navicula incerta [1] = experiment: Growth reduction / MIC test against Navicula incerta in Guillard's F/2 medium, chlorophyll fluorescence
Procedure: as §1, §2
as §3, with “N. incerta)” for “C. lytica)”, “N. incerta” for “C. lytica”, “N. incerta,” for “C. lytica,”

[2] = test system: Staphylococcus epidermidis; experiment: Growth reduction / MIC test against Staphylococcus epidermidis in tryptic soy broth, absorbance 600 nm; conditions: for MIC: Staphylococcus epidermidis, read-out: S. epidermidis MIC; for Percent reduction in growth of Staphylococcus epidermidis: Table 9
Procedure: as §1
as §2, with “tryptic soy broth” for “Guillard's F/2 medium”, “the” for “the 10”
as §5, with “S. epidermidis)” for “E. coli)”, “tryptic soy” for “Luria-Bertani”, “S. epidermidis” for “E. coli”, “S. epidermidis,” for “E. coli,”, “HT microplate reader, BioTek Instruments, Winooski, Vt.).” for “HT).”
For comparison purposes a benzylpiperidino biocide (“Reference 1”) was prepared using ETCS and synthetic methods similar to those described in U.S. Pat. No. 5,036,077, issued Jul. 30, 1991, and incorporated by reference in its entirety. To make Reference 1, 3.9 g of ETCS and 2 g of 4-benzylpiperidine were reacted in 30 mL of methanol. The mixture was heated at 65° C. for 48 hours. Reaction completion was confirmed by ^1H NMR, ^13C NMR, HMQC (2D) NMR and elemental analysis. The antimicrobial activity of Formulations 69-77 and Reference 1 toward S. epidermidis was measured by determining the percent reduction in bacterial growth as a function of concentration, as was done above in EXAMPLE 3.

Navicula incerta [3] = experiment: Growth reduction / MIC test against Navicula incerta in Guillard's F/2 medium, chlorophyll fluorescence; conditions: Table 12; read-out: N. incerta MIC
Candida albicans = experiment: Antifungal activity, percent reduction in fungal growth of Candida albicans; conditions: Table 11
Procedure: Additionally, the antifungal activity of Formulations 69-77 and Reference 1 toward Candida albicans was measured by determining the percent reduction in fungal growth as a function of concentration.

[4] = Table 12, read-out: C. lytica MIC
[5] = Table 12, read-out: H. pacifica MIC
[6] = Formulation Concentration 0.78125 μg/mL
[7] = Formulation Concentration 1.5625 μg/mL
[8] = Formulation Concentration 3.125 μg/mL
[9] = Formulation Concentration 6.25 μg/mL
[10] = Formulation Concentration 12.5 μg/mL
[11] = Formulation Concentration 25 μg/mL
[12] = Formulation Concentration 50 μg/mL
[13] = Formulation Concentration 100 μg/mL

SMILES: CC(O)CNCC(C)O (stereo not drawn) [diisopropanolamine]
- C. lytica MIC (Cellulophaga lytica; Table 12): >100 µg/mL
- H. pacifica MIC (Halomonas pacifica; Table 12): >100 µg/mL
- E. Coli MIC (Escherichia coli; Table 12): >100 µg/mL
- N. incerta MIC (Navicula incerta [1]; Table 12): >100 µg/mL
- S. epidermidis MIC ([2]; Table 12): >100 µg/mL

SMILES: COCCNCCOC [bis(methoxyethyl), bis(2-methoxyethyl)amine]
- MIC (Cellulophaga lytica; [4]): > 100 µg/mL
- MIC (Halomonas pacifica; [5]): > 100 µg/mL
- MIC (Escherichia coli; Table 12): > 100 µg/mL
- MIC (Navicula incerta [3]): > 100 µg/mL
- MIC ([2]; Table 12): > 100 µg/mL

SMILES: OCCNCCO [diethanolamine]
- MIC (Cellulophaga lytica; [4]): > 100 µg/mL
- MIC (Halomonas pacifica; [5]): > 100 µg/mL
- MIC (Escherichia coli; Table 12): > 100 µg/mL
- MIC (Navicula incerta [3]): > 100 µg/mL
- MIC ([2]; Table 12): > 100 µg/mL

SMILES: NCCN [ethylenediamine]
- MIC (Cellulophaga lytica; [4]): > 100 µg/mL
- MIC (Halomonas pacifica; [5]): > 100 µg/mL
- MIC (Escherichia coli; Table 12): > 100 µg/mL
- MIC (Navicula incerta [3]): > 100 µg/mL
- MIC ([2]; Table 12): > 100 µg/mL

SMILES: C=CCN [allyl amine]
- MIC (Cellulophaga lytica; [4]): > 100 µg/mL
- MIC (Halomonas pacifica; [5]): > 100 µg/mL
- MIC (Escherichia coli; Table 12): > 100 µg/mL
- MIC (Navicula incerta [3]): > 100 µg/mL
- MIC ([2]; Table 12): > 100 µg/mL

SMILES: CNc1ccccc1 [N-methyl aniline, N-methylaniline]
- MIC (Cellulophaga lytica; read-out: C. lytica MIC, Table 12): > 100 µg/mL
- MIC (Halomonas pacifica; read-out: H. pacifica MIC, Table 12): > 100 µg/mL
- MIC (Escherichia coli): > 100 µg/mL
- MIC (Navicula incerta [1]; read-out: N. incerta MIC): > 100 µg/mL
- MIC [2]: > 100 µg/mL

SMILES: Clc1cc(Cl)c(OCC2CO2)c(Cl)c1 (stereo not drawn) [EDCP, 2-((2,4,6-trichlorophenoxy)methyl)oxirane]
- Percent reduction in growth of Candida albicans (Candida albicans; [6]): 11.66%
- Percent reduction in growth of Candida albicans (Candida albicans; [7]): 15.25%
- Percent reduction in growth of Candida albicans (Candida albicans; [8]): 0.00%
- Percent reduction in growth of Candida albicans (Candida albicans; [9]): 1.45%
- Percent reduction in growth of Candida albicans (Candida albicans; [10]): 0.00%
- Percent reduction in growth of Candida albicans (Candida albicans; [11]): 0.00%
- Percent reduction in growth of Candida albicans (Candida albicans; [12]): 21.55%
- Percent reduction in growth of Candida albicans (Candida albicans; [13]): 25.83%
- Percent reduction in growth of Escherichia coli (Escherichia coli; [6]): 14.85%
- Percent reduction in growth of Escherichia coli (Escherichia coli; [7]): 1.60%
- Percent reduction in growth of Escherichia coli (Escherichia coli; [8]): 0.00%
- Percent reduction in growth of Escherichia coli (Escherichia coli; [9]): 55.43%
- Percent reduction in growth of Escherichia coli (Escherichia coli; [10]): 52.95%
- Percent reduction in growth of Escherichia coli (Escherichia coli; [11]): 61.26%
- Percent reduction in growth of Escherichia coli (Escherichia coli; [12]): 1.38%
- Percent reduction in growth of Escherichia coli (Escherichia coli; [13]): 91.65%
- Percent reduction in growth of Staphylococcus epidermidis [2, 6]: 7.58%
- Percent reduction in growth of Staphylococcus epidermidis [2, 7]: 6.34%
- Percent reduction in growth of Staphylococcus epidermidis [2, 8]: 5.04%
- Percent reduction in growth of Staphylococcus epidermidis [2, 9]: 8.44%
- Percent reduction in growth of Staphylococcus epidermidis [2, 10]: 6.20%
- Percent reduction in growth of Staphylococcus epidermidis [2, 11]: 8.90%
- Percent reduction in growth of Staphylococcus epidermidis [2, 12]: 5.00%
- Percent reduction in growth of Staphylococcus epidermidis [2, 13]: 0.00%

— US20110171279A1, “POLYETHYLENIMINE BIOCIDES” (NDSU RESEARCH FOUNDATION, priority 2009, published 2011)
